Earlier results as cited in US20200163955A1, “STERILE COMPOSITIONS OF INDACATEROL SUITABLE FOR NEBULIZATION” (GLENMARK SPECIALTY S.A., priority 2018, published 2020).

Conditions: water

CCc1cc2c(cc1CC)CC(NC[C@H](O)c1ccc(O)c3[nH]c(=O)ccc13)C2 [Indacaterol, 5-[(1R)-2-[(5,6-diethyl-2,3-dihydro-1H-inden-2-yl)amino]-1-hydroxyethyl]-8-hydroxy-1H-quinolin-2-one]
aqueous solubility: very slightly soluble in water
